16 molecules from ChEMBL document CHEMBL1201862, “PubChem BioAssay data set” (2004) can be followed below.

The structures appear in SMILES notation.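 Cells were grown in 96-well plates and exposed to each compound for 48 hours at five concentrations; endpoints were interpolated linearly between bracketing concentrations, or set to the highest concentration if not reached. At the GI50, growth is halved.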 Calls of active or inactive are those of the source. No stated cut-off is given here; in the data, active = GI50 up to about 1.1 µM and inactive = higher. Some results are limits rather than exact numbers.

Some test systems named below: NCI-H460; HT-29; SK-MEL-5; UACC-257; OVCAR-5; SF-268; RXF 393; M14; Malme-3M; OVCAR-3; SW-620; HOP-62; CAKI-1; UACC-62.
Holding throughout (test): NCI anticancer screen, dose series, 48 h

As for `COc1cc(/C=C(\C)c2ccc3c(c2)OCO3)cc(OC)c1OC`, the GI50 is 34.2 µM (inactive) with NCI-H460; 25.7 µM (inactive) in the test with HT-29; 11.7 µM (inactive) in the test on SK-MEL-5; 29.2 µM (inactive) in the test with UACC-257; 55.3 µM (inactive) in the test on OVCAR-5; 26.9 µM (inactive) with SF-268. In addition, the GI50 with RXF 393 is 34.1 µM (inactive); in the test with M14, 36.7 µM (inactive); in the test with Malme-3M it was 19.8 µM (inactive); in the test on OVCAR-3, 34.8 µM (inactive); with SW-620 it was 19.1 µM (inactive); with HOP-62 it was 70 µM (inactive).
Regarding `COc1ccc(CCc2ccccc2CC(=O)O)cc1`, the GI50 in the test with NCI-H460, in the test with HT-29, with SK-MEL-5, in the test on UACC-257, in the test with CAKI-1 and in the test with OVCAR-5 was > 100 µM (inactive) in each case. In addition, the GI50 in the test with SF-268, with UACC-62, with RXF 393, with M14, in the test on Malme-3M and with OVCAR-3 was > 100 µM (inactive) throughout. For the same molecule, the GI50 in the test on SW-620 was > 100 µM (inactive).
As for `COc1ccc(S(=O)(=O)NNS(C)(=O)=O)cc1OC`, the GI50 in the test on NCI-H460 was > 100 µM (inactive); with HT-29, > 100 µM (inactive); in the test with SK-MEL-5, > 100 µM (inactive); in the test on UACC-257 it was > 100 µM (inactive); in the test on CAKI-1, > 100 µM (inactive); in the test on SF-268, 79.4 µM (inactive). Moreover, the GI50 in the test with UACC-62 is > 100 µM (inactive); in the test with RXF 393, 31.3 µM (inactive); in the test on M14, > 100 µM (inactive); in the test on Malme-3M, > 100 µM (inactive); with SW-620 it was > 100 µM (inactive); in the test with HOP-62 it was > 100 µM (inactive).
As to `CCCCCCCCCCCCCP(=O)(NCC(N)=O)OCC` (stereo unspecified), the GI50 is 20.6 µM (inactive) in the test on NCI-H460; 17.2 µM (inactive) in the test with HT-29; 18.5 µM (inactive) in the test on SK-MEL-5; 18.9 µM (inactive) in the test with UACC-257; 19.5 µM (inactive) in the test with OVCAR-5; 19.1 µM (inactive) with SF-268. Moreover, the GI50 was 16.3 µM (inactive) in the test on UACC-62; 22.5 µM (inactive) in the test with RXF 393; 16.9 µM (inactive) in the test on M14; 17.7 µM (inactive) with Malme-3M; 15.3 µM (inactive) with OVCAR-3; 19.9 µM (inactive) with SW-620. Moreover, in the test with HOP-62, the GI50 was 17.3 µM (inactive).
On to `CCc1cccc(C)c1NC(=O)CC1C(=O)Nc2ccccc2S1(=O)=O` (stereo unspecified), for which the GI50 with NCI-H460 is 13.1 µM (inactive); in the test with HT-29, 19.7 µM (inactive); with SK-MEL-5, 13.7 µM (inactive); in the test with UACC-257, 18.9 µM (inactive); in the test on CAKI-1 it was 14.2 µM (inactive); in the test with OVCAR-5 it was 23.6 µM (inactive). The GI50 was 20.8 µM (inactive) in the test with SF-268; 15.8 µM (inactive) in the test on UACC-62; 15.1 µM (inactive) in the test on RXF 393; 18.9 µM (inactive) with M14; 14.4 µM (inactive) in the test on Malme-3M; 15.2 µM (inactive) in the test with OVCAR-3. Besides, in the test on SW-620, the GI50 was 15.2 µM (inactive).
`C/C(=C\c1ccccc1)C(=O)c1c(C)cc(C)cc1C`: the GI50 in the test with NCI-H460, in the test with HT-29, with SK-MEL-5, in the test with UACC-257, in the test with CAKI-1 and with SF-268 was > 100 µM (inactive) each time. The GI50 in the test with UACC-62, in the test on RXF 393, with M14, in the test on Malme-3M, in the test with OVCAR-3 and in the test with SW-620 was > 100 µM (inactive) throughout. In addition, the GI50 in the test on HOP-62 was > 100 µM (inactive).
On to `CC(=O)C1CC2(c3ccccc3)C(=O)c3ccccc3N2O1` (stereo unspecified), for which the GI50 with HT-29, with SK-MEL-5, in the test on UACC-257, in the test on SF-268, with UACC-62 and with RXF 393 was > 100 µM (inactive) in each case. In addition, the GI50 in the test with M14, with Malme-3M, in the test on SW-620 and in the test with HOP-62 was > 100 µM (inactive) in each case.
For `Nc1ccc(C(=O)N/C(=C\c2ccc3c(c2)OCO3)c2nc3c(O)nc(S)nc3[nH]2)cc1`, the GI50 in the test on HT-29, with SK-MEL-5, in the test on CAKI-1, with OVCAR-5, in the test with SF-268 and in the test with UACC-62 was > 100 µM (inactive) throughout. Also, the GI50 is 33.8 µM (inactive) with RXF 393; > 100 µM (inactive) in the test on M14; > 100 µM (inactive) with Malme-3M; > 100 µM (inactive) in the test with OVCAR-3; > 100 µM (inactive) in the test with SW-620.
As for `CC(=O)N(C(C)=O)c1c(N)n(C)c(=O)[nH]c1=O`, the GI50 with NCI-H460, in the test on HT-29, in the test on SK-MEL-5, with UACC-257, in the test with CAKI-1 and in the test with OVCAR-5 was > 100 µM (inactive) throughout. Also, the GI50 with SF-268, in the test with UACC-62, with RXF 393, in the test on M14, with Malme-3M and with OVCAR-3 was > 100 µM (inactive) in each case. In addition, the GI50 in the test with SW-620 is > 100 µM (inactive).
On to `CCOC(=O)C(C)(C)Oc1ccc2c(-c3ccc(Cl)cc3)cc(=O)oc2c1`, for which the GI50 in the test with NCI-H460 was > 100 µM (inactive); in the test on HT-29, > 100 µM (inactive); in the test with SK-MEL-5, 74.8 µM (inactive); with UACC-257 it was > 100 µM (inactive); in the test on SF-268 it was > 100 µM (inactive); in the test on UACC-62 it was > 100 µM (inactive). The GI50 in the test with RXF 393, with M14, in the test on Malme-3M, in the test on OVCAR-3, in the test on SW-620 and in the test with HOP-62 was > 100 µM (inactive) throughout.
In the case of `CC1SC2=NC3=C(c4ccccc4C3=O)C(c3ccc(F)cc3)N2C1=O` (stereo unspecified), the GI50 in the test on NCI-H460, in the test with HT-29, with SK-MEL-5, with UACC-257, with CAKI-1 and in the test on OVCAR-5 was > 100 µM (inactive) in each case. Besides, the GI50 in the test with SF-268 was > 100 µM (inactive); in the test on UACC-62, 64.1 µM (inactive); in the test with M14 it was > 100 µM (inactive); in the test with Malme-3M, > 100 µM (inactive); with OVCAR-3, > 100 µM (inactive); with SW-620 it was > 100 µM (inactive). Besides, the GI50 in the test with HOP-62 was > 100 µM (inactive).
`Nc1ccccc1[S+]([O-])c1ccccc1` (stereo unspecified): the GI50 in the test with NCI-H460, in the test on SK-MEL-5, in the test with OVCAR-5, with SF-268, with UACC-62 and in the test on RXF 393 was > 100 µM (inactive) in each case. In addition, the GI50 with M14, with Malme-3M, with OVCAR-3, with SW-620 and with HOP-62 was > 100 µM (inactive) in each case.
Regarding `Nc1ccc(Nc2nc(F)nc(-c3c4ccccc4c4n3CCS4)n2)cc1`, the GI50 was 13.1 µM (inactive) in the test on SK-MEL-5; > 10 µM (inactive) in the test with UACC-257; 11 µM (inactive) in the test with CAKI-1; 17.6 µM (inactive) in the test on OVCAR-5; 15.7 µM (inactive) in the test with SF-268; 16 µM (inactive) with RXF 393. The GI50 in the test with M14 was 17 µM (inactive); with Malme-3M it was 14.5 µM (inactive); with OVCAR-3 it was 19.3 µM (inactive); in the test on SW-620, 13 µM (inactive); in the test on HOP-62 it was 16 µM (inactive).
Regarding `CCC(C)CC(C)CC(C)/C=C(\C)C1=C(C)CC(C)(O)O1` (stereo unspecified), the GI50 with NCI-H460 is 65.6 µM (inactive); in the test on HT-29 it was 93.8 µM (inactive); in the test on SK-MEL-5, 92.5 µM (inactive); with UACC-257 it was 79.1 µM (inactive); in the test with CAKI-1, 79.8 µM (inactive); in the test with UACC-62, > 100 µM (inactive). Moreover, the GI50 with RXF 393 is 88.9 µM (inactive); in the test with M14 it was > 100 µM (inactive); in the test with SW-620, > 100 µM (inactive).
With `C[C@@H]1C2=CC[C@@]3(C)C(CCC3[C@H](C)[C@H]3C[C@@]4(C)O[C@@](c5cccnc5)(O3)OC4(C)C)[C@@H]2C2OC2[C@@]12CCC(=O)O2` (stereo partly specified), the GI50 with NCI-H460 was 32 µM (inactive); in the test on HT-29 it was 34.6 µM (inactive); in the test on SK-MEL-5, 33 µM (inactive); in the test on UACC-257, 44 µM (inactive); in the test with CAKI-1, 27.6 µM (inactive); in the test with OVCAR-5 it was 57.4 µM (inactive). The GI50 in the test on SF-268 was > 100 µM (inactive); in the test with UACC-62, 30.3 µM (inactive); in the test with M14 it was 26.1 µM (inactive); with Malme-3M, 37.4 µM (inactive); in the test with OVCAR-3, 24.1 µM (inactive); in the test with SW-620, 37.7 µM (inactive). For the same molecule, the GI50 in the test with HOP-62 was 66.7 µM (inactive).
`COC(=O)[C@@]12OC[C@]34C([C@@H](O)C1O)[C@@]1(C)CC(=O)C(O)=C(C)C1C[C@H]3OC(=O)[C@H](OC(=O)/C=C(/c1ccccc1)C(F)(F)F)[C@H]42` (stereo partly specified): the GI50 is 1.03 µM (active) with NCI-H460; 2.18 µM (inactive) with HT-29; 3.28 µM (inactive) in the test with SK-MEL-5; 7.03 µM (inactive) in the test on UACC-257; 7.59 µM (inactive) in the test with CAKI-1; 8.75 µM (inactive) in the test on OVCAR-5. Moreover, the GI50 in the test on SF-268 was 8.81 µM (inactive); with UACC-62, 2.05 µM (inactive); with RXF 393, 6.05 µM (inactive); with M14, 3.54 µM (inactive); with Malme-3M, 1.16 µM (inactive); with HOP-62 it was 5.96 µM (inactive).
